Assay results as given in PMC4021201, “Repositioning: the fast track to new anti-malarial medicines?” (Malaria Journal, 2014).
One block for each compound: values may come before it. Starred links: 1 amine or outer side, 2 acyl side, 3 side chain; linkers in the order of their positions; H or OH if unused. Positions of bridges follow the written chain, without caps; N, C: chain ends. Non-standard residues stand in square brackets, D forms with d. Residues, ends and D or L forms follow the SMILES beside them. Chains are numbered I, II in the order given. Actinocin(9to1) = Cc1c2oc3c(C)ccc(C(=O)[*:1])c3nc-2c(C(=O)[*:2])c(N)c1=O; NMeV = CN[C@H](C(=O)O)C(C)C; Sar = CNCC(=O)O

What was measured:
[1] = tested on: P. falciparum K1; experiment: SYBR I dye DNA staining assay (SJCRH), P. falciparum K1; details: read-out: EC50 K1
Experimental: (§1) SJCRH used the SYBR® I dye DNA staining assay, which measures proliferation of P. falciparum in human erythrocytes [27]. Plasmodium falciparum strains 3D7 (chloroquine-sensitive) and K1 (chloroquine-resistant) (American Type Culture Collection [ATCC], Manassas, VA, USA) were maintained using established methods [28]. The assay method is as previously described [29]. […] EC50 values were calculated with the robust investigation of screening experiments (RISE) algorithm with a four-parameter logistic equation.
(§2) This group used the SYBR® I dye DNA staining assay, which measures proliferation of P. falciparum in human erythrocytes [1]. Plasmodium falciparum strains 3D7 (chloroquine-sensitive) and K1 (chloroquine-resistant) (American Type Culture Collection [ATCC], Manassas, VA) were maintained in group O? erythrocytes (Key Biologics, LLC, Memphis, TN) using established methods [2]. Serial dilutions of the test compound in DMSO were prepared to provide 10 concentrations for each compound. […] After addition of 10 µL mixed DNA dye solution in PBS per test well (10× SYBR® I, [Invitrogen, Carlsbad, CA]), 0.5% [vol/vol] Triton X-100, 0.5 mg/mL saponin), plates were shaken for 1 min at 750 rpm and incubated in the dark for 90 min. Fluorescence was measured with an EnVision®spectrophotometer (PerkinElmer, Waltham, MA) [3]. […] EC50 values were calculated with the robust investigation of screening experiments (RISE) algorithm with a four-parameter logistic equation.

[2] = tested on: P. falciparum 3D7; experiment: SYBR I dye DNA staining assay (SJCRH), P. falciparum 3D7; details: read-out: EC50 3D7
Experimental: as §1, §2

[3] = tested on: P. falciparum 3D7A strain; experiment: Whole-cell [3H] hypoxanthine incorporation assay (GSK); format: cell-based, Plasmodium falciparum; details: mean of three independent measures
Experimental: GSK Tres Cantos used a whole-cell [^3H] hypoxanthine radioisotope incorporation assay to determine per cent parasite inhibition at 48 hours and 96 hours. Plasmodium falciparum 3D7A strain (Malaria Research and Reference Reagent Resource Center MR4; [32]) was maintained as described previously. Parasite growth inhibition assays and EC50 determination were carried out following standard methods. Three independent experiments were conducted for each time duration and test compound.
GlaxoSmithKline, Tres Cantos. A whole-cell [^3H]hypoxanthine radioisotope incorporation assay was performed to determine percent parasite inhibition at 48 h and 96 h. Plasmodium falciparum 3D7A strain (Malaria Research and Reference Reagent Resource Center MR4; http://www.mr4.org), was maintained in human erythrocytes (Transfusions Blood Bank, Madrid) with Albumax II medium, as previously described. Parasite growth inhibition assays and EC50 determination were carried out following standard methods. Briefly, cultures with 0.5% parasitemia and 2.5% hematocrit were incubated with the 2 μM of test drug for 48 h or 96 h. [^3H]hypoxanthine (0.8 μCi/mL) in 10 μL of RPMI was added 24 h before parasites were harvested (Cell Harvester 96™, TOMTEC, Hamden, CT). Incorporated radioactivity was quantified with a Wallac MicroBeta® TriLux (Model 1450 LS, PerkinElmer). Three independent experiments were conducted for each time duration and test compound.

[4] = tested on: P. falciparum Pf3D7^0087/N9; experiment: Plasmodium falciparum huSCID humanized mouse model, four-day test; details: for ED90: parasitaemia at day 7 after infection, once daily for four days, mean (95% CI); for reduction of parasitaemia versus vehicle: 10, 30 mg/kg sc target doses, up to maximum tolerated dose
Experimental: In vivo testing using this model was performed by GSK at Tres Cantos, against P. falciparum 3D7 (in vivo strain Pf3D7^0087/N9generated by GSK using Pf3D7 obtained from Eduardo Dei-Cas, Institute Pasteur, Lille, France [36]) growing in peripheral blood of female NOD-scid IL-2Rγ^null mice engrafted with human erythrocytes, i e, a ‘humanized’ mouse model, following published protocols [36, 37]. Briefly, animals were infected intravenously with 20×10^6 infected erythrocytes on day 0. […] Dosing was initiated at the maximum tolerated dose in mice on day 3 after infection and continued once daily for four days. Each experimental group was n = 3 mice unless otherwise stated. Control animals received vehicle only and a quality control assay used chloroquine at target doses of 3 mg/kg and 7 mg/kg. Venous blood samples for parasitology (2 μL) were taken at days 3, 5, and 7 after infection. Anti-malarial efficacy was assessed using a standard four-day test (i e, at day 7) and blood parasitaemia was measured by fluorescence-activated cell sorting (FACS) analysis [38]. The limit of detection (per cent of P. falciparum) was 0.01%. The number of parasites ×10^6 cells was recorded and data were analysed by non-linear fitting to a logistic equation of log10 (per cent parasitaemia at day 7 after infection) versus the dose level administered.
Per cent parasitaemia at day 7 after infection in treated versus control animals was analysed using a one factor ANOVA with Tukey’s post-test analysis. […] ED90 was calculated similarly. Analysis was performed using WinNonlin 5.2 and GraphPad Prism 5.0.

[5] = Pharmacokinetics in P. falciparum-infected humanized mice; details: for Cmax / Tmax: NOD-scid IL-2Rγ^null, mouse; for Cmax / Tmax / AUC (0–t): whole blood; for DNAUC(0–t): dose-normalized AUC(0–t); for DNAUC(0–t) / AUC (0–t): mean (SD)
Experimental: The pharmacokinetics of compounds after oral administration was determined concurrently in the same mice used for the therapeutic efficacy assay. Samples were taken at 0.25, 0.5, 1, 3, 6, 8, and 24 hours after the first dose. Compound levels were measured in 25 μL blood samples that were mixed with 25 μL of saponin (0.1% in water) and processed under standard liquid–liquid extraction conditions [39]. Pharmacokinetic parameters were calculated using WinNonlin 5.2 non-compartmental analysis.

[6] = tested on: P. falciparum 3D7; experiment: SYBR I dye DNA staining assay (Pfizer), P. falciparum 3D7
Experimental: (§3) Cultures of P. falciparum 3D7 and K1 (both from David Baker, LSHTM) were maintained in O+ human erythrocytes (Research Red Cells and Blood Transfusion Service). 384-well assay plates contained 250 nL of compound at a serial dilution of 1:3 in 100% DMSO, starting from 200 µM (in the plate i.e. 20 µM final) and minimum and maximum controls. After addition of 50 μL of infected erythrocytes per well, plates were incubated at 37°C for three days in 5% CO2, 5% O2 and 90% N2. […] Percent anti-malarial activity was calculated relative to the minimum and maximum controls for each of the 11 drug concentrations and EC50 values determined from the resulting data plot.

[7] = tested on: P. falciparum K1; experiment: SYBR I dye DNA staining assay (Pfizer), P. falciparum K1
Experimental: as §3

[8] = parameters: method as in unpublished data provided by Pfizer Inc; details: ref unpublished data provided by Pfizer Inc; cited from earlier work
[9] = Plasmodium falciparum, K1, 72 h
[10] = Plasmodium falciparum, 3D7, 72 h
[11] = target dose 50 mg/kg oral (experimental 36 mg/kg)
[12] = target dose 10 mg/kg subcutaneous (experimental 6.4 CEP-701, 8.3 CEP-1347)
[13] = target dose 30 mg/kg subcutaneous (experimental 15.0 CEP-701, 22.0 CEP-1347)
[14] = mean (95% CI), SYBR I fluorescence assay, chloroquine-resistant strain, 72 h
[15] = mean (95% CI), SYBR I fluorescence assay, chloroquine-sensitive strain, 72 h

- IC50 ([3]; Plasmodium falciparum): 11 ± 1 nM
SMILES: COc1ccc(OC)c(Cc2cnc3nc(N)nc(N)c3c2C)c1 [Piritrexim]

- EC50 [1, 9]: 10 nM
- EC50 [2, 10]: 10 nM
SMILES: Cc1ccnc(NS(=O)(=O)c2ccc(N)cc2)n1 [Sulfamerazine]

- EC50 [1, 9]: 60 nM
- EC50 [2, 10]: 60 nM
SMILES: Cc1cc(N)c2ccccc2[n+]1CCCCCCCCCC[n+]1c(C)cc(N)c2ccccc21 [Dequalinium]

- EC50 [1, 9]: 200 nM
- EC50 [2, 10]: 210 nM
SMILES: COc1cccc2c1C(=O)c1c(O)c3c(c(O)c1C2=O)C[C@@](O)(C(=O)CO)C[C@@H]3O[C@H]1C[C@H](N)[C@H](O)[C@H](C)O1 [Doxorubicin]

- EC50 [1, 9]: 120 nM
- EC50 [2, 10]: 750 nM
SMILES: CC[C@H](C)C(=O)O[C@H]1C[C@H](O)C=C2C=C[C@H](C)[C@H](CC[C@@H](O)C[C@@H](O)CC(=O)O)[C@H]21 [Pravastatin]

- EC50 [1, 9]: > 12800 nM
- EC50 [2, 10]: 700 nM
SMILES: O=c1[nH]c2ccccc2n1C1CCN(CCCC(c2ccc(F)cc2)c2ccc(F)cc2)CC1 [Pimozide]

- EC50 [1, 14]: 500 nM
- EC50 [2, 15]: 840 nM
SMILES: Cc1c(N(C)CS(=O)(=O)O)c(=O)n(-c2ccccc2)n1C [Dipyrone]

- EC50 ([6]; read-out: EC50 3D7, mean (95% CI), Pfizer SYBR I fluorescence assay): 700 nM
- EC50 ([7]; read-out: EC50 K1, mean (95% CI), Pfizer SYBR I fluorescence assay): 400 nM
SMILES: CCNCc1cncc(-c2ccc3[nH]nc(-c4nc5c(F)cc(F)cc5[nH]4)c3c2)c1C [AG-024322]

- EC50 [1, 9]: 80 nM
- EC50 [2, 10]: 20 nM
SMILES: CC(C)C[C@H](NC(=O)[C@H](Cc1ccccc1)NC(=O)c1cnccn1)B(O)O [Bortezomib]

- EC50 [1, 9]: 650 nM
- EC50 [2, 10]: 220 nM
SMILES: COc1cc(Nc2c(C#N)cnc3cc(OCCCN4CCN(C)CC4)c(OC)cc23)c(Cl)cc1Cl [Bosutinib]

- EC50 [1, 9]: 50 nM
- EC50 [2, 10]: 220 nM
SMILES: N=C(N)c1ccc(OCCCCCOc2ccc(C(=N)N)cc2)cc1 [Pentamidine]

- EC50 ([6]; Plasmodium falciparum, 3D7, read-out: EC50 3D7): 1100 nM
- EC50 ([7]; Plasmodium falciparum, K1, read-out: EC50 K1): 800 nM
SMILES: COc1ccc(C(=O)c2cn(C(C)C)c3ncnc(N)c23)cc1NC(=O)Nc1ccc(Cl)cc1Cl [CE-245677]
- human plasma level with significant central nervous system adverse events [8]: ~ 1.5 μM

- IC50 [3]: 1130 ± 146 nM
SMILES: CCN(CC)CCN(Cc1ccc(-c2ccc(C(F)(F)F)cc2)cc1)C(=O)Cn1cc(Cc2cnn(C)c2)c(=O)nc1SCc1ccc(F)cc1 [SB-435495]

- EC50 [1, 9]: 880 nM
- EC50 [2, 10]: 2710 nM
SMILES: CNC(=O)c1cc(Oc2ccc(NC(=O)Nc3ccc(Cl)c(C(F)(F)F)c3)cc2)ccn1 [Sorafenib]

Further lines, the compound ahead of its results:

SMILES: Cc1c2oc3c(C)ccc(C(=O)N[C@@H]4C(=O)N[C@H](C(C)C)C(=O)N5CCC[C@H]5C(=O)N(C)CC(=O)N(C)[C@@H](C(C)C)C(=O)O[C@@H]4C)c3nc-2c(C(=O)N[C@@H]2C(=O)N[C@H](C(C)C)C(=O)N3CCC[C@H]3C(=O)N(C)CC(=O)N(C)[C@@H](C(C)C)C(=O)O[C@@H]2C)c(N)c1=O [Dactinomycin] (I: T[dV]P[Sar][NMeV] / II: T[dV]P[Sar][NMeV]; ester I:1-I:C, II:1-II:C; linker I:N-II:N via Actinocin(9to1))
- EC50 [1, 9]: 1 nM
- EC50 [2, 10]: 0.9 nM

SMILES: CS(=O)(=O)CCNCc1ccc(-c2ccc3ncnc(Nc4ccc(OCc5cccc(F)c5)c(Cl)c4)c3c2)o1 [Lapatinib]
- EC50 [1, 9]: > 7370 nM
- EC50 [2, 10]: 560 nM

SMILES: C/C=C/C[C@@H](C)C(=O)[C@H]1C(=O)N[C@@H](C(C)C)C(=O)N(C)CC(=O)N(C)[C@@H](CC(C)C)C(=O)N[C@@H](C(C)C)C(=O)N(C)[C@@H](CC(C)C)C(=O)N[C@@H](C)C(=O)N[C@H](C)C(=O)N(C)[C@@H](CC(C)C)C(=O)N(C)[C@@H](CC(C)C)C(=O)N(C)[C@@H](C(C)C)C(=O)N1C [PSC-833, valspodar]
- AUCED90 ([4]; blood exposure needed to inhibit parasitaemia at day 7 by 90% vs vehicle): >17.33 μg · h · mL^−1 · day^−1
- ED90 [4]: >200 mg/kg
- ED90 ([4]; listed as Valspodar): > 200 mg/kg
- Cmax ([5]; po, 50 mg/kg): 1390 ng/mL
- Tmax ([5]; po, 50 mg/kg): 3.3 h
- Cmax ([5]; po, 100 mg/kg): 1010 ng/mL
- Tmax ([5]; po, 100 mg/kg): 5.33 h
- Cmax ([5]; po, 200 mg/kg): 910 ng/mL
- Tmax ([5]; po, 200 mg/kg): 2 h
- DNAUC(0–t) [5, 11]: 0.36 (0.082) μg · h · mL^−1 · day^−1
- DNAUC(0–t) ([5]; target dose 100 mg/kg oral): 0.13 (0.04) μg · h · mL^−1 · day^−1
- DNAUC(0–t) ([5]; target dose 200 mg/kg oral): 0.065 (0.03) μg · h · mL^−1 · day^−1
- AUC (0–t) [5, 11]: 12.90 (2.97) μg · h · mL
- AUC (0–t) ([5]; target dose 100 mg/kg oral): 12.26 (4.25) μg · h · mL
- AUC (0–t) ([5]; target dose 200 mg/kg oral): 13.05 (6.05) μg · h · mL

SMILES: C[C@]12O[C@H](C[C@]1(O)CO)n1c3ccccc3c3c4c(c5c6ccccc6n2c5c31)CNC4=O [Lestaurtinib]
- EC50 [1, 9]: 340 nM
- reduction of parasitaemia versus vehicle [4]: did not reach statistical significance
- EC50 [2, 10]: 490 nM
- Cmax ([5]; sc, 10 mg/kg): 630 ng/mL
- Tmax ([5]; sc, 10 mg/kg): 0.78 h
- Cmax ([5]; sc, 30 mg/kg): 2800 ng/mL
- Tmax ([5]; sc, 30 mg/kg): 4 h
- DNAUC(0–t) [5, 12]: 0.44 (0.072) μg · h · mL^−1 · day^−1
- DNAUC(0–t) [5, 13]: 1.6 (0.47) μg · h · mL^−1 · day^−1
- AUC (0–t) [5, 12]: 2.8 (0.46) μg · h · mL
- AUC (0–t) [5, 13]: 23.8 (6.8) μg · h · mL

SMILES: CN(CCCCCCCCCCN(C)C(=O)Oc1cccc([N+](C)(C)C)c1)C(=O)Oc1cccc([N+](C)(C)C)c1 [Demecarium]
- EC50 [1, 9]: 300 nM
- EC50 [2, 10]: 510 nM

SMILES: CN1CCN(CC/C=C2/c3ccccc3Sc3ccc(S(=O)(=O)N(C)C)cc32)CC1 [Thiothixene]
- EC50 [1, 9]: 20 nM
- EC50 [2, 10]: 40 nM

SMILES: CCCNCC(O)COc1ccccc1C(=O)CCc1ccccc1 (stereo not drawn) [Propafenone]
- EC50 [1, 9]: 330 nM
- EC50 [2, 10]: 1220 nM

SMILES: CN(C)c1ccc2nc3ccc(=[N+](C)C)cc-3sc2c1 [Methylene blue]
- EC50 [1, 9]: < 0.3 nM
- EC50 [2, 10]: < 0.3 nM

SMILES: CO[C@@H]1[C@H](N(C)C(=O)c2ccccc2)C[C@H]2O[C@]1(C)n1c3ccccc3c3c4c(c5c6ccccc6n2c5c31)C(=O)NC4 [Midostaurin]
- EC50 [2, 10]: 350 nM

SMILES: CO[C@@]12[C@H](COC(N)=O)C3=C(C(=O)C(C)=C(N)C3=O)N1C[C@@H]1N[C@@H]12 [Mitomycin]
- EC50 [1, 9]: 510 nM
- EC50 [2, 10]: 970 nM

SMILES: CN(Cc1cnc2nc(N)nc(N)c2n1)c1ccc(C(=O)N[C@@H](CCC(=O)O)C(=O)O)cc1 [Methotrexate]
- EC50 [1, 9]: 20 nM
- EC50 [2, 10]: 10 nM

SMILES: Nc1nc(N)c2nc(CNc3ccc(C(=O)N[C@@H](CCC(=O)O)C(=O)O)cc3)cnc2n1 [Aminopterin]
- EC50 [1, 9]: 1250 nM
- EC50 [2, 10]: 320 nM

SMILES: CCSCc1ccc2c(c1)c1c3c(c4c5cc(CSCC)ccc5n5c4c1n2[C@H]1C[C@](O)(C(=O)OC)[C@]5(C)O1)CNC3=O [CEP-1347]
- reduction of parasitaemia versus vehicle [4]: did not reach statistical significance
- Cmax ([5]; sc, 10 mg/kg): 830 ng/mL
- Tmax ([5]; sc, 10 mg/kg): 4.8 h
- Cmax ([5]; sc, 30 mg/kg): 730 ng/mL
- Tmax ([5]; sc, 30 mg/kg): 6 h
- DNAUC(0–t) [5, 12]: 0.98 (0.22) μg · h · mL^−1 · day^−1
- DNAUC(0–t) [5, 13]: 0.45 (0.092) μg · h · mL^−1 · day^−1
- AUC (0–t) [5, 12]: 8.1 (1.8) μg · h · mL
- AUC (0–t) [5, 13]: 9.9 (2.1) μg · h · mL

SMILES: CC(=O)[C@@]1(O)CC[C@H]2[C@@H]3C=C(Cl)C4=CC(=O)[C@@H]5C[C@@H]5[C@]4(C)[C@H]3CC[C@@]21C [Cyproterone]
- EC50 [1, 14]: 890 nM
- EC50 [2, 15]: 560 nM

SMILES: CC[C@@]1(O)C(=O)OCc2c1cc1n(c2=O)Cc2c-1nc1cc3c(cc1c2CN1CCN(C)CC1)OCCO3 [Lurtotecan]
- IC50 ([3]; Plasmodium falciparum): 191 ± 62 nM
